The source of these data is article PMC7894522, “Structure Based Design of Bicyclic Peptide Inhibitors of RbAp48” (Angewandte Chemie (International Ed. in English), 2020).

Starred links: 1 amine or outer side, 2 acyl side, 3 side chain; linkers in the order of their positions; H or OH if unused. Positions of bridges follow the written chain, without caps; N, C: chain ends. Residues, ends and D or L forms follow the SMILES beside them. TBMB = c1c(C[*:1])cc(C[*:3])cc1C[*:2]

By IC50 is commonly meant the point on the concentration scale where inhibition reaches its midpoint. As usually defined, the Kd is the free concentration of one partner at which half of the binding sites on the other are occupied at equilibrium, for simple one-to-one binding. Low values mean a tighter complex, high ones a looser complex.

In data set [1] the target is T1, RbAp48 (Homo sapiens, UniProt Q09028). The experiment in a line: Competitive fluorescence polarization (FP) assay using complex of peptide 1 and RbAp48. On the set-up: Full length RbAp48 was cloned; His tag followed by 3C cleavage site (N, cleaved yes); made in house; host or cells: Sf9 insect cells. Type of data set: binding. The following applies: Table 1; competitive FP, tracer peptide 1 1 nM, RbAp48 15 nM, 20 mM Tris-HCl, 150 mM NaCl, 0.01% Tween-20, pH 7.5, 30 min room temperature; lower limit set by 15 nM protein; read-out: IC50. In short, it runs like this:
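Sf9-expressed full-length RbAp48 (tag cleaved), 15 nM, displaced from 1 nM fluorescent peptide tracer in 20 mM Tris-HCl pH 7.5, 150 mM NaCl, 0.01% Tween-20. Read by FP (ex 485/em 535 nm) after 30 min at room temperature.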
(Polarisation of emitted light reports the rotation of a fluorescent probe.)

In data set [2] the target is T1, RbAp48. The experiment in a line: Isothermal titration calorimetry (direct and competitive). Set-up: Full length RbAp48 was cloned; His tag followed by 3C cleavage site (N, cleaved yes); made in house; host or cells: Sf9 insect cells. The following applies: competitive ITC with weak ligand 40. Format: binding. On the procedure: The weak ligand interferes with binding of the strong ligand allowing the use of higher concentrations and therefore stronger signal. The actual affinity and thermodynamic parameters can then be calculated from the measured values.[ ^20 , ^21 ] The long linear peptide 2, monocyclic peptide 8, and bicyclic peptide 33 were analysed using this method and the results are reported in Table 2 (See Figure 4 A and Supplemental Figure 13–16). […] An effect which could not clearly be observed by the FP assay as it's lower limits were reached.
Protein expression and purification
RbAp48 was expressed and purified by the Dortmund Protein Facility. Full length RbAp48 was cloned into a pOPIN vector ligating it to an N-terminal His tag followed by a 3C cleavage site. The protein was expressed from Sf9 cells for 48 h. Cells were harvested and lysed and the protein was purified by loading onto a HisTrap FF crude 5 ml column followed by on-column cleavage using Precission protease. The cleaved protein was then further purified using a HiLoad 26/60 Superdex 200 column.
(§1) Fluorescence polarization assay […]
Isothermal Titration Calorimetry
Isothermal titration calorimetry measurements w ere performed using a Microcal ITC-200 device. The buffer for all measurements consisted of 20 mM Tris, 150 mM NaCl, pH 7.5 and all measurements were performed at 25°C in duplicate except for 8. RbAp48 was dialyzed overnight using a 10 kDa MWCO Slide-A-lizer dialysis membrane and peptide samples were dissolved in the dialysis buffer. Direct measurements of 40 were perfomed by titrating the peptide ( 800 µM) into the cell containing RbAp48 (40 µM) using 2 µl injection after an initial injection of 0.5 µl. […]
by competitive ITC where the protein is premixed with a weak ligand ( 40).[1] Competitive measurements were performed by titrating 2, 8 or 33 (300 µM) into the cell containing RbAp48 (30 µM) and 40 (416 µM). Other conditions were the same as for the direct measurement described above.
Ki was calculated according using the following formula: […]

The nature of data set [3]: Peptide stability in MDA-MB-231 whole cell lysate. The following applies: human, 37°C, HPLC, duplicate. Type of data set: in vitro ADME. On the procedure: To investigate whether the cyclization strategy influences the stability of the peptides we incubated 3, 8 and 33 in MDA‐MB‐231 cell lysate. […]
as §1
Isothermal Titration Calorimetry […]
Peptide stability was tested in whole cell lysate prepared from MDA-MB-231 cells using the freeze-thaw method. Peptides were dissolved in lysate (normalized to 5mg/ml protein using PBS) at 600 µM and incubated at 37°C. Samples were taken at different time points and mixed with an equal amount of MeOH containing 0.05 mg/ml ethylparaben as an i nternal standard. The samples were mixed and kept on ice for 15 minutes before centrifugation at 14000 rpm at 4 °C for 10 min. The supernatant was carefully removed and analyzed by HPLC. Peptide peaks were integrated and surface areas compared […]
Measurements were performed in duplicate.

T1 sequence (Q09028 whole entry): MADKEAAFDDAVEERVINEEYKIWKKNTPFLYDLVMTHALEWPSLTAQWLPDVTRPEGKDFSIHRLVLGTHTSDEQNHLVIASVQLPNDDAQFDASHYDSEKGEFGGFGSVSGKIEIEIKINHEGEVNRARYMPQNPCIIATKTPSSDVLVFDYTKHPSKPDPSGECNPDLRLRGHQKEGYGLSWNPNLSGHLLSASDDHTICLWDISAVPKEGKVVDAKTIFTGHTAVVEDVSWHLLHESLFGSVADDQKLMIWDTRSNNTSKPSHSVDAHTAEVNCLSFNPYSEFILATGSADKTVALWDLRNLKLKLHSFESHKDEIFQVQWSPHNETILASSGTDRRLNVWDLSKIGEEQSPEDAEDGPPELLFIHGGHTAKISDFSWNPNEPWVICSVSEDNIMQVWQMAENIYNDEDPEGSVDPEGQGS

`CC(=O)N[C@H]1CSCc2cc3cc(c2)CSC[C@@H](C(=O)N[C@@H](C)C(N)=O)NC(=O)[C@@H]2CCCN2C(=O)[C@H](CCCCN)NC(=O)[C@H](Cc2ccc(O)cc2)NC(=O)[C@@H]2CCCN2C(=O)[C@H](CCCNC(=N)N)NC(=O)[C@H](CCCNC(=N)N)NC(=O)[C@H](C)NC(=O)[C@H](CSC3)NC(=O)[C@H](CCCNC(=N)N)NC(=O)[C@H](CCCCN)NC(=O)[C@H]([C@@H](C)O)NC1=O` [Peptide 33] (Ac-CTKRCARRPYKPCA-NH2; linker 1-5-13 via TBMB): at RbAp48 [1], the half-maximal inhibitory concentration (IC50) came out at 12.3 ± 2 nM. For the same compound, the Kd on RbAp48 [2] amounted to 8.56 nM. Also, the half-life at 600 µM in data set [3] (MDA-MB-231 whole cell lysate (freeze-thaw), 5 mg/ml protein in PBS, peptide 600 µM, read-out: t 1/2 (half-life)) came to 1.57 h. Further, the remaining at 1 h, 600 µM in data set [3] (T 60 min, MDA-MB-231 whole cell lysate 5 mg/ml protein, 600 µM, read-out: % left) turned out to be 57.8%. Moreover, in data set [3] (T 120 min, MDA-MB-231 whole cell lysate 5 mg/ml protein, 600 µM, read-out: % left), the remaining at 2 h, 600 µM was 41.4%. Further, in data set [3] (T 240 min, MDA-MB-231 whole cell lysate 5 mg/ml protein, 600 µM, read-out: % left), the remaining at 4 h, 600 µM was determined as 0%.
